Consider 15 compounds from patent US8633207B2, “Quinazoline compounds and methods of use thereof” (Ambit Biosciences Corporation, priority 2010, dated 2014).

In assay [1] the target is T1, JAK3 (Homo sapiens, UniProt P52333).
T1 construct: made in house; host or cells: T7 phage display, or HEK-293 cells (alternative)
T1 sequence (P52333 1-1124): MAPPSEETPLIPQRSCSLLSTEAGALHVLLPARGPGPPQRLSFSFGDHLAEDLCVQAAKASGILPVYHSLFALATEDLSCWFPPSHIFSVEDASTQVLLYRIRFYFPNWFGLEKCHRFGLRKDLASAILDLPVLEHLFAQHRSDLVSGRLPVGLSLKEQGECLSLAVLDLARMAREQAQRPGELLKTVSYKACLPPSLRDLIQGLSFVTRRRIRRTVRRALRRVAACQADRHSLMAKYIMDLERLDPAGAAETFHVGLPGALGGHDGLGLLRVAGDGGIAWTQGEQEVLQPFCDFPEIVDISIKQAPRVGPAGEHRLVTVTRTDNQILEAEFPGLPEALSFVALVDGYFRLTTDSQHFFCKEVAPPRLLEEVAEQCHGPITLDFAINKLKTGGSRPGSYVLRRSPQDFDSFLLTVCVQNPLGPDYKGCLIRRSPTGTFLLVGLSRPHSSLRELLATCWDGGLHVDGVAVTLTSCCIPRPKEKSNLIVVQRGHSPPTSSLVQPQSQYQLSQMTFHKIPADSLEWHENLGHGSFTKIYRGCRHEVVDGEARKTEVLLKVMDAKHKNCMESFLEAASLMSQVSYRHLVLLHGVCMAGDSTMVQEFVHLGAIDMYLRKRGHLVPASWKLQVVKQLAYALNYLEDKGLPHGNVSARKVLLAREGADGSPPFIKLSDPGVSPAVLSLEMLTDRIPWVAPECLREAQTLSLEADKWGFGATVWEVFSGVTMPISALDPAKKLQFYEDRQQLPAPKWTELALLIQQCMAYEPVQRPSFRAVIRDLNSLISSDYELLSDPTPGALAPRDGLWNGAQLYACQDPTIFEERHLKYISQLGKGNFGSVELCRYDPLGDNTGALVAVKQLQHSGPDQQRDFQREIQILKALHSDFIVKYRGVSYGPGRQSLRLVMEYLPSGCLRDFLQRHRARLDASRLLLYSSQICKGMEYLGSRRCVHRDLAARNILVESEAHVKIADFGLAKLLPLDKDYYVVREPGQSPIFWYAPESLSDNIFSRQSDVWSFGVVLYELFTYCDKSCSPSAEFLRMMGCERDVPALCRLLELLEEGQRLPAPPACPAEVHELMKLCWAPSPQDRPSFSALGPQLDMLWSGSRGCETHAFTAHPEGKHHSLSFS
In words: Competition binding assay to determine Kd against JAK kinases: JAK3. The text has this:
(§1) Competition Binding Assay to Determine Binding Constants (Kd) of the Compounds Against JAK Kinases
(§2) Competition binding assays used herein were developed, validated and performed as described in Fabian et al., Nature Biotechnology 2005, 23, 329-336. Kinases were produced as fusions to T7 phage (See, Fabian et al. or WO04/015142) or alternatively, the kinases were expressed in HEK-293 cells and subsequently tagged with DNA for PCR detection (See, WO08/005,310). For the binding assays, streptavidin-coated magnetic beads were treated with biotinylated affinity ligands for 30 min at rt to generate affinity resins. The liganded beads were blocked with excess biotin and washed with blocking buffer (SeaBlock (Pierce), 1% BSA, 0.05% Tween 20, 1 mM DTT) to remove unbound ligand and to reduce non-specific binding. Binding reactions were assembled by combining kinase, liganded affinity beads, and test compounds in 1× binding buffer (20% SeaBlock, 0.17×PBS, 0.05% Tween 20, 6 mM DTT). Test compounds were prepared as 100× stocks in DMSO and rapidly diluted into the aqueous environment. DMSO was added to control assays lacking a test compound. Primary screen interactions were performed in polypropylene 384-well plates in a final volume of 34 μL, while Kd determinations were performed in polystyrene 96-well plates in a final volume of 135 μL. The assay plates were incubated at room temperature with shaking for 1 hour, long enough for binding reactions to reach equilibrium, and the affinity beads were washed extensively with wash buffer (1×PBS, 0.05% Tween 20) to remove unbound protein. The beads were then resuspended in elution buffer (1×PBS, 0.05% Tween 20, 2 μM non-biotinylated affinity ligand) and incubated at room temperature with shaking for 30 min. The kinase concentration in the eluates was measured by quantitative PCR. Each kinase was tested individually against each compound. Kds were determined using eleven serial threefold dilutions. A selectivity score, which is a quantitative measure of selectivity of a compound against a panel of enzymes, may be calculated for a compound by dividing the number of enzymes for which a compound meets a set criteria, (for example, a binding constant of 100 nM or less), by the total number of enzymes tested.

Assay [2] has as its target T2, JAK2 (Homo sapiens, UniProt O60674).
T2 construct: made in house; host or cells: T7 phage display, or HEK-293 cells (alternative)
The experiment in a line: Competition binding assay to determine Kd against JAK kinases: JAK2.
Excerpt: as §1, §2

The target in assay [3] is T3, Tyk2 (Homo sapiens, UniProt P29597).
T3 construct: made in house; host or cells: T7 phage display, or HEK-293 cells (alternative)
T3 sequence (P29597 whole entry): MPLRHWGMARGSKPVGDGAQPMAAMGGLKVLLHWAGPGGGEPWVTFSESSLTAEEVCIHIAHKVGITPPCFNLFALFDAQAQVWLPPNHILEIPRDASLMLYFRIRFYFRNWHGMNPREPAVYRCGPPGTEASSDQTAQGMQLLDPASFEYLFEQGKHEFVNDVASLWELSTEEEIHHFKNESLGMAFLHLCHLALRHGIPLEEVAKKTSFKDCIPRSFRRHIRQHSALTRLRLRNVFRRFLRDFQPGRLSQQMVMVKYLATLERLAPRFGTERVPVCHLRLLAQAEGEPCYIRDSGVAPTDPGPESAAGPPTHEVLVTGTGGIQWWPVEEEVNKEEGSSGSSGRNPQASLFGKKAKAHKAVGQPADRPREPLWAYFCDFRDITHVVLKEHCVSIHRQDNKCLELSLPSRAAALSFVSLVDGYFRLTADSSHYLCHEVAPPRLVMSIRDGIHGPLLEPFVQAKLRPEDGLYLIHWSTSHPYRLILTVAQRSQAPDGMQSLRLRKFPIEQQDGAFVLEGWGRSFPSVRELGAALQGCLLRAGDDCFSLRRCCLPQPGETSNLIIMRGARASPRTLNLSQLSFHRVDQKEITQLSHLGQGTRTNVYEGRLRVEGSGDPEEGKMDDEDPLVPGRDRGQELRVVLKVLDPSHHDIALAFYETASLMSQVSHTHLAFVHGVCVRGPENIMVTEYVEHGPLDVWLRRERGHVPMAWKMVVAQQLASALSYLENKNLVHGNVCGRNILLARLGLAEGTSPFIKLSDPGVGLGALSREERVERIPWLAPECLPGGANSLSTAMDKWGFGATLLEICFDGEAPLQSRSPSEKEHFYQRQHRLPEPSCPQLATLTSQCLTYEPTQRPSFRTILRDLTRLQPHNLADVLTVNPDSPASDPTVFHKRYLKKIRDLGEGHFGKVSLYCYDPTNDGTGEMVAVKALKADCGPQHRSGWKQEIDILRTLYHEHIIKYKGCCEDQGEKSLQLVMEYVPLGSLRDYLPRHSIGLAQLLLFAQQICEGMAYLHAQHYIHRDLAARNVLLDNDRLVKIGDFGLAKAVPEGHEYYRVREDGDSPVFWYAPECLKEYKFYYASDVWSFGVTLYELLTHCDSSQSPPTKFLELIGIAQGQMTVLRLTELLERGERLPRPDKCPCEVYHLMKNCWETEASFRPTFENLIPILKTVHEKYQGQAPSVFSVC
The experiment in a line: Competition binding assay to determine Kd against JAK kinases: Tyk2.
Excerpt: as §1, §2

The test system of assay [4] is GM-CSFR/JAK2/STAT5 pathway. In words: csTF-1 cell-based reporter assay. As to conditions: Homo sapiens; csTF-1 cells, GM-CSF at 2 ng/mL, 4 hours; read-out: Cell Assay: CS TF-1 reporter assay IC50. The procedure: csTF-1 Cell-Based Reporter Assay
csTF-1 cells are derived from the human erythroleukemia cell line that is growth dependent on GM-CSF and has an intact GM-CSFR/JAK2/STAT5 pathway. The cell line contains stably integrated beta-lactamase reporter gene under the control of the […] (irf 1) response element recognized by the activated transcription factor STATS. csTF-1 cells (Invitrogen K1219) were washed with assay media (97% OPTIMEM/0.5% dialyzed FBS/0.1 mM NEAA/1 mM Na pyr/P/S) and seeded in the same media at 5×10^5 cell/mL in T150 flask. After 16 hour incubation, cells were seeded at 2×10^5 cell/well in 50 μl volume, into Costar, clear bottom, 96-well assay plates. Serial dilutions of compounds were added to the plates with final DMSO concentration at 0.5% and GM-CSF at 2 ng/mL and the plates were then incubated at […] and 5% CO2 for 4 hours. The plates were brought to room temperature before adding Substrate Mixture according to manufacturer's protocol (Invitrogen, Catalog #K1085). The assay plates containing the substrate mixture were incubated in the dark at room temperature for 2 hours. Blue and green fluorescence was measured with excitation at 409 nm and emission at 460 nm (for blue) and excitation at 409 nm and emission at 530 nm (for green) using Spectra Max Gemini EM.
(In general: In a reporter assay the amount or activity of a reporter protein is the signal.)

T2 sequence (O60674 whole entry): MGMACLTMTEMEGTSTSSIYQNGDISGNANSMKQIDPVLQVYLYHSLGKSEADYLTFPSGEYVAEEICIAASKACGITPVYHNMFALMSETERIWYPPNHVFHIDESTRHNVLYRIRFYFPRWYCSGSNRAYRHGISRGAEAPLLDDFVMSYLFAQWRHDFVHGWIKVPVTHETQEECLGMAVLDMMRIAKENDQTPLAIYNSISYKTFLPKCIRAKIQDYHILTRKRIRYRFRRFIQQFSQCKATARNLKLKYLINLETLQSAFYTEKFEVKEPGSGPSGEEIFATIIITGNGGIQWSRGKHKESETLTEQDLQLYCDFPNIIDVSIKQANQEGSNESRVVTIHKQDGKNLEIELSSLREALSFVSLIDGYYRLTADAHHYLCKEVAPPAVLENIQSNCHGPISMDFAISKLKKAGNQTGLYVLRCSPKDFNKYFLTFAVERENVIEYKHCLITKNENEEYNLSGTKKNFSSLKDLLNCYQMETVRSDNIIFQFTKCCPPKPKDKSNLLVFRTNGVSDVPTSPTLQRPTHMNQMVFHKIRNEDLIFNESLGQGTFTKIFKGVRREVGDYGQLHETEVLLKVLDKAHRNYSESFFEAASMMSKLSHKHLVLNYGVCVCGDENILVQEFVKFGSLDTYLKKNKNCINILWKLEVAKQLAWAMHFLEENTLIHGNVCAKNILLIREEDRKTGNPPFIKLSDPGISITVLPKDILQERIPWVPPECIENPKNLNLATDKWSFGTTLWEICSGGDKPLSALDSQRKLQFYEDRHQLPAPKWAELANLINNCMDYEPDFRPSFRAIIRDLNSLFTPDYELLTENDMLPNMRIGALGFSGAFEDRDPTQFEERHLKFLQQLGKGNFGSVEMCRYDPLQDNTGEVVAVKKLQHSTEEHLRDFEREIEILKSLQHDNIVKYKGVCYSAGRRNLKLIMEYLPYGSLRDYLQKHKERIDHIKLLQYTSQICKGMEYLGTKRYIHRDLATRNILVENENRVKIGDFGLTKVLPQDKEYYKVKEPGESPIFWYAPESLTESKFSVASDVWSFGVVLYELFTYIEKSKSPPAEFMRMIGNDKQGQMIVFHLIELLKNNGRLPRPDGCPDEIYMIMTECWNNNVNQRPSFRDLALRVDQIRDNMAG

On to `Cc1cc(Nc2nc(C(F)(F)c3ccc(F)cn3)nc3c(C4CC4)cccc23)n[nH]1` [Example 51, 8-cyclopropyl-2-(difluoro(5-fluoropyridin-2-yl)methyl)-N-(5-methyl-1H-pyrazol-3-yl)quinazolin-4-amine], for which the Kd in assay [1] is 0.01 to 0.1 µM; in assay [2], ≤ 0.001 µM; in assay [3] it was ≤ 0.01 µM. Moreover, the IC50 in assay [4] lay within 0.1 to 0.5 µM.

For the compound `Cc1cc(Nc2nc(C(F)(F)c3ccc(F)cn3)nc3cc(C(N)=O)ccc23)n[nH]1` [Example 41, 2-(difluoro(5-fluoropyridin-2-yl)methyl)-4-((5-methyl-1H-pyrazol-3-yl)amino)quinazoline-7-carboxamide], the Kd was ≤ 0.01 µM in assay [1], ≤ 0.001 µM in assay [2] and ≤ 0.01 µM in assay [3]. Also, the concentration for half-maximal inhibition (IC50) in assay [4] was > 0.5 µM.

`Cc1cc(Nc2nc(C(F)(F)c3ccc(F)cn3)nc3cc(C#N)ccc23)n[nH]1` [Example 8, 2-(difluoro(5-fluoropyridin-2-yl)methyl)-4-(5-methyl-1H-pyrazol-3-ylamino)quinazoline-7-carbonitrile]: the figures for the Kd in assay [1], in assay [2] and in assay [3] were 0.01 to 0.1 µM, 0.001 to 0.01 µM and ≤ 0.01 µM, respectively. For the same compound, the IC50 in assay [4] is ≤ 0.1 µM.

For the compound `Cc1cnc(Nc2nc(C(F)(F)c3ccc(F)cn3)nc3ccccc23)s1` [Example 30, N-(2-(difluoro(5-fluoropyridin-2-yl)methyl)quinazolin-4-yl)-5-methylthiazol-2-amine], the Kd in assay [1] was > 0.1 µM; in assay [2], 0.001 to 0.01 µM; in assay [3] it was 0.01 to 0.1 µM. In assay [4], the concentration for half-maximal inhibition (IC50) fell in the range of 0.1 to 0.5 µM.

For `Cc1cc(Nc2nc(C(F)(F)c3ccc(F)cn3)nc3cc(C4CC4)ccc23)n[nH]1` [Example 9, 7-cyclopropyl-2-(difluoro(5-fluoropyridin-2-yl)methyl)-N-(5-methyl-1H-pyrazol-3-yl)quinazolin-4-amine], the equilibrium dissociation constant (Kd) was ≤ 0.01 µM in assay [1], ≤ 0.001 µM in assay [2] and ≤ 0.01 µM in assay [3]. In addition, the half-inhibitory concentration (IC50) in assay [4] is ≤ 0.1 µM.

Regarding `Cc1cc(Nc2nc(C(F)(F)c3ccc(F)cn3)nc3cc(Br)ccc23)n[nH]1` [Example 7, 7-bromo-2-(difluoro(5-fluoropyridin-2-yl)methyl)-N-(5-methyl-1H-pyrazol-3-yl)quinazolin-4-amine], the dissociation constant (Kd) in assay [1] was ≤ 0.01 µM; in assay [2] it was ≤ 0.001 µM; in assay [3], ≤ 0.01 µM. Further, in assay [4], the 50% inhibitory concentration (IC50) is ≤ 0.1 µM.

On to `Cc1cc(Nc2nc(C(F)(F)c3ccc(F)cn3)nc3c(F)cccc23)n[nH]1` [Example 12, 2-(difluoro(5-fluoropyridin-2-yl)methyl)-8-fluoro-N-(3-methyl-1H-pyrazol-5-yl)quinazolin-4-amine], for which the Kd in assay [1] is ≤ 0.01 µM; in assay [2] it was ≤ 0.001 µM; in assay [3] it was ≤ 0.01 µM. Also, the IC50 in assay [4] is ≤ 0.1 µM.

On to `Cc1cc(Nc2nc(C(F)(F)c3ccc(F)cn3)nc3c([N+](=O)[O-])cccc23)n[nH]1` [Example 49, 2-(difluoro(5-fluoropyridin-2-yl)methyl)-N-(5-methyl-1H-pyrazol-3-yl)-8-nitroquinazolin-4-amine], for which the figures for the dissociation constant Kd in assay [1], in assay [2] and in assay [3] were 0.01 to 0.1 µM, 0.001 to 0.01 µM and 0.01 to 0.1 µM, respectively. The 50% inhibitory concentration (IC50) in assay [4] lay in the range of 0.1 to 0.5 µM.

For `Cc1cc(Nc2nc(C(F)(F)c3ccc(F)cn3)nc3cc(Cl)ccc23)n[nH]1` [Example 16, 7-chloro-2-(difluoro(5-fluoropyridin-2-yl)methyl)-N-(5-methyl-1H-pyrazol-3-yl)quinazolin-4-amine], the dissociation constant Kd is 0.01 to 0.1 µM in assay [1], ≤ 0.001 µM in assay [2] and ≤ 0.01 µM in assay [3]. Further, in assay [4], the IC50 was ≤ 0.1 µM.

Take `Cc1cc(Nc2nc(C(F)(F)c3ncc(F)cn3)nc3c(Cl)cccc23)n[nH]1` [Example 40, 8-chloro-2-(difluoro(5-fluoropyrimidin-2-yl)methyl)-N-(5-methyl-1H-pyrazol-3-yl)quinazolin-4-amine]: the dissociation constant (Kd) in assay [1] was 0.01 to 0.1 µM; in assay [2], ≤ 0.001 µM; in assay [3] it was ≤ 0.01 µM. For the same compound, in assay [4], the 50% inhibitory concentration (IC50) was ≤ 0.1 µM.

Take `CCc1cccc2c(Nc3cc(C)[nH]n3)nc(C(F)(F)c3ccc(F)cn3)nc12` [Example 36, 2-(difluoro(5-fluoropyridin-2-yl)methyl)-8-ethyl-N-(5-methyl-1H-pyrazol-3-yl)quinazolin-4-amine]: the Kd in assay [1] is 0.01 to 0.1 µM; in assay [2], ≤ 0.001 µM; in assay [3], ≤ 0.01 µM. The 50% inhibitory concentration (IC50) in assay [4] was 0.1 to 0.5 µM.

As for `Fc1ccc(C(F)(F)c2nc(Nc3nc[nH]n3)c3ccccc3n2)nc1` [Example 31, 2-(difluoro(5-fluoropyridin-2-yl)methyl)-N-(1H-1,2,4-triazol-3-yl)quinazolin-4-amine], the equilibrium dissociation constant (Kd) was > 0.1 µM in assay [1], > 0.01 µM in assay [2] and 0.01 to 0.1 µM in assay [3]. Also, in assay [4], the IC50 was > 0.5 µM.

Take `Cc1ccc2c(Nc3cc(C)[nH]n3)nc(C(F)(F)c3ccc(F)cn3)nc2c1` [Example 14, 2-(difluoro(5-fluoropyridin-2-yl)methyl)-7-methyl-N-(5-methyl-1H-pyrazol-3-yl)quinazolin-4-amine]: the results for the Kd in assay [1], in assay [2] and in assay [3] were ≤ 0.01 µM, ≤ 0.001 µM and ≤ 0.01 µM, respectively. Further, the 50% inhibitory concentration (IC50) in assay [4] is ≤ 0.1 µM.

Turning to `COc1ccc2c(Nc3cc(C)[nH]n3)nc(C(F)(F)c3ccc(F)cn3)nc2c1` [Example 6, 2-(difluoro(5-fluoropyridin-2-yl)methyl)-7-methoxy-N-(5-methyl-1H-pyrazol-3-yl)quinazolin-4-amine], the equilibrium dissociation constant (Kd) in assay [1] was ≤ 0.01 µM; in assay [2] it was ≤ 0.001 µM; in assay [3], ≤ 0.01 µM. Moreover, the IC50 in assay [4] is ≤ 0.1 µM.

For the compound `COc1cccc2c(Nc3cc(C)[nH]n3)nc(C(F)(F)c3ccc(F)cn3)nc12` [Example 43, 2-(difluoro(5-fluoropyridin-2-yl)methyl)-8-methoxy-N-(5-methyl-1H-pyrazol-3-yl)quinazolin-4-amine], the equilibrium dissociation constant (Kd) in assay [1] is ≤ 0.01 µM; in assay [2] it was ≤ 0.001 µM; in assay [3], ≤ 0.01 µM. In assay [4], the IC50 was ≤ 0.1 µM.

One may read the Kd as the equilibrium constant for the complex coming apart. Read a low Kd as tighter binding. In general, IC50 refers to the midpoint of a concentration-inhibition curve.
